{"source": "paper PMC3446790", "about": "(Cellular signalling, 2010)", "key": {"S1P2 [1]": {"biological_target": "T1, S1P2 (Homo sapiens, UniProt O95136)", "T1 sequence (O95136 whole entry, species assumed)": "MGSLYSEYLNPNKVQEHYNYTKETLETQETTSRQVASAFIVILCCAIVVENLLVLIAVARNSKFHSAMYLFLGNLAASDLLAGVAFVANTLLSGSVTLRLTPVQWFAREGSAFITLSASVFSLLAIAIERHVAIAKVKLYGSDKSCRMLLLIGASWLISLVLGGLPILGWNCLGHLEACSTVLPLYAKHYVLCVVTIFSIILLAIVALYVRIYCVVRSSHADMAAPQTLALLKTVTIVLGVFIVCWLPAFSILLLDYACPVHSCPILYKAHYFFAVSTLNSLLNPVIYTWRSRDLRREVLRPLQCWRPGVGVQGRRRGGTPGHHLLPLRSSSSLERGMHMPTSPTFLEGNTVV", "experiment": "Antagonism of S1P-induced Ca2+ mobilization in S1P2-expressing HTC4 cells", "format": "cell-based"}, "IEC-6 cells": {"system": "IEC-6 cells", "experiment": "DNA fragmentation ELISA, camptothecin-induced apoptosis", "format": "cell-based, rat"}, "sphingosine kinase 1": {"system": "sphingosine kinase 1", "details": "cited from earlier work"}, "S1P5 [2]": {"biological_target": "T2, S1P5 (Homo sapiens, UniProt Q9H228)", "T2 sequence (Q9H228 whole entry, species assumed)": "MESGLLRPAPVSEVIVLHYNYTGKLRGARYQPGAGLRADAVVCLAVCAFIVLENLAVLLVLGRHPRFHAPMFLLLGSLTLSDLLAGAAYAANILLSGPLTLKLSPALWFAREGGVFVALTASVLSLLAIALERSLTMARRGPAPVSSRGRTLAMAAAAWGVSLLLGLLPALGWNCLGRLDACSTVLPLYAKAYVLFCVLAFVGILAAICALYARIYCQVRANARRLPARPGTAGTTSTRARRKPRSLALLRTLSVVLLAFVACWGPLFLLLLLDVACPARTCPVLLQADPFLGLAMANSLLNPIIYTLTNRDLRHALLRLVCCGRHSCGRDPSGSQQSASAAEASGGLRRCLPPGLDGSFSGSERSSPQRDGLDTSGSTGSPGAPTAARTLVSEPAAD", "experiment": "Ca2+ mobilization", "format": "cell-based", "details": "concentrations up to 10 μM"}, "S1P1 [3]": {"biological_target": "T3, S1P1 (Homo sapiens, UniProt P21453)", "experiment": "Antagonism of S1P-induced Ca2+ mobilization in S1P1-expressing HTC4 cells", "format": "cell-based"}, "S1P4 [4]": {"biological_target": "T4, S1P4 (Homo sapiens, UniProt O95977)", "T4 sequence (O95977 1-384)": "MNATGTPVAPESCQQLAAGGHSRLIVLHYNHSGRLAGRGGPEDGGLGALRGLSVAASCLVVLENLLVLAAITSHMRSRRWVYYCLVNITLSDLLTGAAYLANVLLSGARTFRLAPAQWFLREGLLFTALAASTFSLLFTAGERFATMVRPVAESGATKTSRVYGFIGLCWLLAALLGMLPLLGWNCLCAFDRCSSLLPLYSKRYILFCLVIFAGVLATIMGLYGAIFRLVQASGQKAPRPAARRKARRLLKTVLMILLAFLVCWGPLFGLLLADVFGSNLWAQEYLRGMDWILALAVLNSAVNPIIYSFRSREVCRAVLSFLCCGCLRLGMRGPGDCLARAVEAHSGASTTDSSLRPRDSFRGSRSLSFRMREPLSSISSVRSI", "experiment": "Ca2+ mobilization", "format": "cell-based", "details": "Ca2+ mobilization, concentrations up to 10 μM"}, "S1P1-eGFP": {"biological_target": "S1P1-eGFP (Homo sapiens, UniProt P21453)", "format": "cell-based", "details": "100 nM, 30 min, HEK293"}, "[5]": {"system": "ERK1/2 and AKT in IEC-6 cells", "experiment": "Immunoblot analysis of ERK1/2 and AKT phosphorylation", "format": "cell-based, rat"}, "S1P3 [6]": {"biological_target": "T5, S1P3 (Homo sapiens, UniProt Q99500)", "T5 sequence (Q99500 whole entry, species assumed)": "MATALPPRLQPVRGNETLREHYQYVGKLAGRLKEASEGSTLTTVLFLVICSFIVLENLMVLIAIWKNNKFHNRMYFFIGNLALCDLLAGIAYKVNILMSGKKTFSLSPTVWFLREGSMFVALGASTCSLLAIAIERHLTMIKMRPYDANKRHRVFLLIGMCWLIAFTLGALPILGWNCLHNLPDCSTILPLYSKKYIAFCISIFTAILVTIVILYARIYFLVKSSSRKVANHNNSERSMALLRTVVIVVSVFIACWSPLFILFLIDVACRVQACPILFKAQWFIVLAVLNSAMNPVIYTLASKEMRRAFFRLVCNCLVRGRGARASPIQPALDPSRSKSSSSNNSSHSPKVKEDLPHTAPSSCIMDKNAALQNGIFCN", "experiment": "Antagonism of S1P-induced Ca2+ mobilization in S1P3-expressing HTC4 cells", "format": "cell-based"}, "LPA1,2,3,4,5 and GPR87": {"system": "LPA1,2,3,4,5 and GPR87", "experiment": "Ca2+ mobilization in cells transfected with LPA receptors", "format": "cell-based", "details": "data not shown"}, "P2Y10/Gα16": {"biological_target": "P2Y10/Gα16 (Homo sapiens, UniProt O00398+P30679)", "experiment": "Antagonism of S1P-induced Ca2+ mobilization in CHO cells expressing P2Y10/Gα16", "format": "cell-based"}, "S1P1 [7]": {"biological_target": "T3, S1P1", "experiment": "Ca2+ mobilization", "format": "cell-based", "details": "Ca2+ mobilization, concentrations up to 10 μM"}, "S1P1 [8]": {"biological_target": "T3, S1P1", "experiment": "Receptor desensitization assay in S1P1-expressing HTC4 cells", "format": "cell-based", "details": "300 nM, 2 h preincubation"}, "S1P3 [9]": {"biological_target": "T5, S1P3", "experiment": "Ca2+ mobilization", "format": "cell-based", "details": "Ca2+ mobilization, concentrations up to 10 μM"}, "S1P5 [10]": {"biological_target": "T2, S1P5", "experiment": "Antagonism of S1P-induced Ca2+ mobilization in S1P5-expressing HTC4 cells", "format": "cell-based"}, "C57BL/6 mice": {"system": "C57BL/6 mice", "experiment": "Whole blood lymphocyte counting in mice", "format": "in vivo", "details": "1 mg/kg intraperitoneal"}, "recombinant ATX": {"biological_target": "recombinant ATX (Homo sapiens, UniProt Q13822)", "experiment": "ATX assay", "format": "biochemical", "details": "FS-3 substrate"}, "S1P2 [11]": {"biological_target": "T1, S1P2", "experiment": "Ca2+ mobilization", "format": "cell-based", "details": "concentrations up to 10 μM"}, "S1P4 [12]": {"biological_target": "T4, S1P4", "experiment": "Antagonism of S1P-induced Ca2+ mobilization in S1P4-expressing HTC4 cells", "format": "cell-based"}, "[13]": {"details": "shift of S1P dose response curve"}}, "note": "“Also recorded” adds a separate entry of the source.", "data": [{"smiles": "CCCCCCCCc1ccc(CC[C@](N)(/C=C/P(=O)(O)O)CO)cc1", "note": "[(S)-ene, (S)-FTY720-vinylphosphonate]", "values": [{"measurement": "antagonist character at S1P2", "setting": "S1P2 [1]; S1P near EC70", "value": "partial antagonist"}, {"measurement": "maximal % inhibition of the S1P response, S1P2", "setting": "S1P2 [1]; at 30, 30 nM S1P", "value": "40.0% inhibition at 30 mM (30 nM S1P)"}, {"measurement": "effect of PTX treatment on the antiapoptotic action", "setting": "IEC-6 cells; 100 ng/mL PTX overnight, 300 nM compound", "value": "partially inhibited"}, {"measurement": "concentration of maximal protection against DNA fragmentation", "setting": "IEC-6 cells; 20 μM camptothecin 5 h, inverse bell-shape curve", "value": 300, "unit": "nM"}, {"measurement": "reduction in DNA fragmentation elicited by camptothecin", "setting": "IEC-6 cells; 15 min pretreatment, 20 μM camptothecin 5 h", "value": "significant and dose-dependent reduction"}, {"measurement": "attenuation of DNA fragmentation at concentrations above 1 μM", "setting": "IEC-6 cells; above 1 μM", "value": "no longer showed an attenuation"}, {"measurement": "inhibition of sphingosine kinase 1", "setting": "sphingosine kinase 1", "value": "inhibitor"}, {"measurement": "S1P5 activation (in words)", "setting": "S1P5 [2]", "value": "failed to activate"}, {"measurement": "antagonist character at S1P1", "setting": "S1P1 [3]; S1P near EC70", "value": "full antagonist"}, {"measurement": "pKb, S1P1 (Schild analysis)", "setting": "S1P1 [3]; average residual error 1.09", "value": 7.10, "unit": "M"}, {"measurement": "Ki", "setting": "S1P1 [3]; read-out: Ki, S1P1, cotreated with 3 nM S1P, ± SD", "value": 384, "unit": "nM"}, {"measurement": "mechanism of antagonism, S1P1", "setting": "S1P1 [3]; [13]", "value": "competitive inhibition"}, {"measurement": "S1P4 activation (in words)", "setting": "S1P4 [4]", "value": "failed to activate"}, {"measurement": "S1P1-eGFP receptor internalization", "setting": "S1P1-eGFP", "value": "failed to cause redistribution; also recorded: did not induce; also recorded: failed to cause receptor internalization"}, {"measurement": "effect of overnight PTX treatment on ERK1/2 activation", "setting": "[5]; 100 ng/mL PTX, S1P 300 nM 5 min, (S)- or (R)-ene 1 μM 10 min", "value": "no significant effect"}, {"measurement": "time of peak ERK1/2 and AKT phosphorylation", "setting": "[5]; IEC-6 cells", "value": "5 to 15", "unit": "min"}, {"measurement": "ERK1/2 and AKT phosphorylation", "setting": "[5]; IEC-6 cells, 100 nM", "value": "elicited ERK1/2 and AKT phosphorylation"}, {"measurement": "antagonist character at S1P3", "setting": "S1P3 [6]; S1P near EC70", "value": "full antagonist"}, {"measurement": "pKb, S1P3 (Schild analysis)", "setting": "S1P3 [6]; average residual error 0.62", "value": 7.61, "unit": "M"}, {"measurement": "Ki", "setting": "S1P3 [6]; read-out: Ki, S1P3, cotreated with 10 nM S1P, ± SD", "value": 39, "unit": "nM"}, {"measurement": "mechanism of antagonism, S1P3", "setting": "S1P3 [6]; [13]", "value": "competitive inhibition"}, {"measurement": "Ca2+ mobilization responses in cells transfected with LPA receptors", "setting": "LPA1,2,3,4,5 and GPR87", "value": "unable to detect"}, {"measurement": "inhibition of the S1P response, P2Y10", "setting": "P2Y10/Gα16; 300 nM S1P", "value": "No inhibition at 30 mM (300 nM S1P)"}, {"measurement": "inhibitory effect on P2Y10 when co-applied with S1P", "setting": "P2Y10/Gα16; concentrations up to 30 μM", "value": "no inhibitory effect"}, {"measurement": "S1P1 activation, agonist character (in words)", "setting": "S1P1 [7]", "value": "did not activate"}, {"measurement": "desensitization of the S1P1 response to S1P after preincubation", "setting": "S1P1 [8]", "value": "almost no effect; also recorded: did not induce"}, {"measurement": "S1P3 activation (in words)", "setting": "S1P3 [9]", "value": "inactive"}, {"measurement": "antagonist character at S1P5", "setting": "S1P5 [10]; S1P near EC70", "value": "partial antagonist"}, {"measurement": "maximal % inhibition of the S1P response, S1P5", "setting": "S1P5 [10]; at 30, 30 nM S1P", "value": "60.0% inhibition at 30 mM (30 nM S1P)"}, {"measurement": "decrease in circulating lymphocytes", "setting": "C57BL/6 mice; 6 h", "value": "approximately 20%"}, {"measurement": "circulating lymphocyte counts at 24 h", "setting": "C57BL/6 mice; 24 h", "value": "restored to pretreatment levels; also recorded: no significant decrease"}, {"measurement": "mechanism of ATX inhibition", "setting": "recombinant ATX", "value": "competitive"}, {"measurement": "Ki", "setting": "recombinant ATX; read-out: Ki, ATX, affinity for free enzyme", "value": 1000, "unit": "nM"}, {"measurement": "S1P2 activation (in words)", "setting": "S1P2 [11]", "value": "failed to activate"}, {"measurement": "antagonist character at S1P4", "setting": "S1P4 [12]; S1P near EC70", "value": "full antagonist"}, {"measurement": "Ki", "setting": "S1P4 [12]; read-out: Ki, S1P4, cotreated with 5 nM S1P, ± SD", "value": 1190, "unit": "nM"}]}]}
